Reference: patent US20100063065A1 (Inpharmatica Limited, priority 2005, published 2010)

target: T1, PPARδ (Homo sapiens, UniProt Q03181); assay: Transactivation assay (PPARδ GAL4 assay) in transiently transfected HEK293 cells; type: cell-based; details: luciferase reporter, Table 1
T1 construct: fused to amino acids 147-441 of PPARδ downstream of CMV promoter; expressed in transfected cells; host or cells: HEK293 cells, transiently transfected with pFACMV-PPARδ using Fugene
T1 sequence (Q03181 147-441): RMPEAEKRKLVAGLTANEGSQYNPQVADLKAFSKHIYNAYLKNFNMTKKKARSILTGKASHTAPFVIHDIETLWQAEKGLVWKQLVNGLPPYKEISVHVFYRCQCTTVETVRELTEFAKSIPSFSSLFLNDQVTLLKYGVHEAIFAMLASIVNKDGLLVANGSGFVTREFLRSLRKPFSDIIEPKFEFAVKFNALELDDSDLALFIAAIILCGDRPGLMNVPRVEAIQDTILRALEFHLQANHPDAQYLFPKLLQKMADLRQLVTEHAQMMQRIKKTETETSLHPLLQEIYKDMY
Description: Compounds were screened for their functional potency in transiently transfected HEK293 cells for their ability to activate PPAR subtypes. Cells were cultured in DMEM (Invitrogen) supplemented with 10% foetal calf serum, glutamine, penicillin and streptomycin and plated at 10 000 cells/well of a 96-well solid white plate and incubated at 37° C./5% CO2 for 24 hours. Media was removed and the cells washed with PBS. Cells were then transiently transfected using Fugene (Roche) with 50 ng pFACMV-PPARδ (plasmid encoding amino acids 1-147 of the GAL4 DNA binding domain, fused to amino acids 147-441 of PPARδ downstream of CMV promoter) and 250 ng pFR-Luc (reporter plasmid containing 5×GAL4 response elements upstream of a luciferase gene), using a ratio of 3:1 Fugene:DNA. 100 μl of this transfection mixture in DMEM (without foetal calf serum) was added to each well, and the incubation continued for a further 24 hours. The cells are then again washed with PBS prior to the addition of 100 μl reduced serum medium (OptiMEM; Invitrogen). Compounds were added (10 μl in 2% DMSO in OptiMEM) to achieve final concentrations between 0-30 μM. The cells were then returned to the incubator for a further 24 hours. 100 μl of luciferase reagent (Bright Glo, Promega) was added directly to each well, and the luminescence determined using a suitable luminometer.
To measure the selectivity of compounds, their ability to transactivate GAL4 fusions of PPARα LBD and PPARγ LBD was determined. The activity of compounds was expressed as a percentage relative to control compounds: PPARγ rosiglitazone (BRL 49653), PPARδ GW501516 (11) or PPARα KCL1999000269 (12). EC50 values were calculated by fitting of the data to a sigmoidal dose response curve.

Row | EC50 [nM] | Structure (SMILES)
1 | 1000 to 30000 | CCc1cc(C(=O)c2ccc(Cl)cc2)c(NC(=O)CC(C)(C)CC(=O)O)s1 [Example 25, 4-[3-(4-Chloro-benzoyl)-5-ethyl-thiophen-2-ylcarbamoyl]-3,3-dimethyl-butyric acid]
2 | 100 to 1000 | CCc1ccc(C(=O)c2cc(CC)sc2NC(=O)CSCC(=O)O)cc1 [Example 9, {[5-Ethyl-3-(4-ethyl-benzoyl)-thiophen-2-ylcarbamoyl]-methylsulfanyl}-acetic acid]
3 | 1000 to 30000 | CCc1cc(C(=O)c2ccc(OC(F)(F)F)cc2)c(NC(=O)CN[C@@H](C(=O)O)C(C)C)s1 [Example 78, (R)-2-({[5-Ethyl-3-(4-trifluoromethoxy-benzoyl)-thiophen-2-ylcarbamoyl]-methyl}-amino)-3-methyl-butyric acid]
4 | 100 to 1000 | CCc1cc(C(=O)c2cccc(-c3ccc(OC(F)(F)F)cc3)c2)c(NC(=O)CSCC(=O)O)s1 [Example 44, {[5-Ethyl-3-(4′-trifluoromethoxy-biphenyl-3-carbonyl)-thiophen-2-ylcarbamoyl]-methylsulfanyl}-acetic acid]

Continued, compound first:

Row | Structure (SMILES) | EC50 [nM]
5 | CCc1cc(C(=O)c2ccc(OC(F)(F)F)cc2)c(NC(=O)CSc2ccc(OC(C)(C)C(=O)O)cc2)s1 [Example 95, 2-(4-{[5-Ethyl-3-(4-trifluoromethoxy-benzoyl)-thiophen-2-ylcarbamoyl]-methylsulfanyl}-phenoxy)-2-methyl-propionic acid] | 100 to 1000
6 | CCc1cc(C(=O)c2ccc(F)cc2)c(NC(=O)CC(C)(C)CC(=O)O)s1 [Example 20, 4-[5-Ethyl-3-(4-fluoro-benzoyl)-thiophen-2-ylcarbamoyl]-3,3-dimethyl-butyric acid] | 1000 to 30000
7 | CC(C)(NCC(=O)Nc1sc(Cl)cc1C(=O)c1ccc(OC(F)(F)F)cc1)C(=O)O [Example 86, 2-({[5-Chloro-3-(4-trifluoromethoxy-benzoyl)-thiophen-2-ylcarbamoyl]-methyl}-amino)-2-methyl-propionic acid] | 100 to 1000
8 | CCc1cc(C(=O)c2ccc(Cl)cc2)c(NC(=O)C(C)N(C)CC(=O)O)s1 (centres unmarked) [Example 87, ({1-[3-(4-Chloro-benzoyl)-5-ethyl-thiophen-2-ylcarbamoyl]-ethyl}-methyl-amino)-acetic acid] | 100 to 1000
9 | CCc1cc(C(=O)c2ccc(OC)cc2)c(NC(=O)C(C)SCC(=O)O)s1 (centres unmarked) [Example 72, {1-[5-Ethyl-3-(4-methoxy-benzoyl)-thiophen-2-ylcarbamoyl]-ethylsulfanyl}-acetic acid] | 100 to 1000
10 | CCc1cc(C(=O)c2ccc(OC(F)(F)F)cc2)c(NC(=O)CC2(CC(=O)O)CCCC2)s1 [Example 4, (1-{[5-Ethyl-3-(4-trifluoromethoxy-benzoyl)-thiophen-2-ylcarbamoyl]-methyl}-cyclopentyl)-acetic acid] | 100 to 1000
11 | CCc1cc(C(=O)c2ccc(Cl)cc2)c(NC(=O)c2ccc(OCC(=O)O)cc2)s1 [Example 97, {4-[3-(4-Chloro-benzoyl)-5-ethyl-thiophen-2-ylcarbamoyl]-phenoxy}-acetic acid] | 100 to 1000
12 | CCc1cc(C(=O)c2ccc(C)c(C)c2)c(NC(=O)CC(C)(C)CC(=O)O)s1 [Example 52, 4-[3-(3,4-Dimethyl-benzoyl)-5-ethyl-thiophen-2-ylcarbamoyl]-3,3-dimethyl-butyric acid] | 1000 to 30000
13 | CCc1cc(C(=O)c2ccc(Oc3ccccc3)cc2)c(NC(=O)CSCC(=O)O)s1 [Example 12, {[5-Ethyl-3-(4-phenoxy-benzoyl)-thiophen-2-ylcarbamoyl]-methylsulfanyl}-acetic acid] | 100 to 1000

same assay, conditions: luciferase reporter, Table 2

Row | EC50 [nM] | Structure (SMILES)
14 | 100 to 1000 | CCc1cc(C(=O)c2ccc(F)cc2)c(NC(=O)CSc2ccc(OC(C)(C)C(=O)O)cc2)s1 [Example 137, 2-(4-{[5-Ethyl-3-(4-fluoro-benzoyl)-thiophen-2-ylcarbamoyl]-methylsulfanyl}-phenoxy)-2-methyl-propionic acid]
15 | 100 to 1000 | CCc1cc(C(=O)c2ccc(OC(F)(F)F)cc2)c(NC(=O)CN2CC(C)CC2C(=O)O)s1 (mixture of isomers) [Example 180, 1-{[5-Ethyl-3-(4-trifluoromethoxy-benzoyl)-thiophen-2-ylcarbamoyl]-methyl}-4-methyl-pyrrolidine-2-carboxylic acid]
16 | < 100 | CCc1cc(C(=O)c2ccc(OC(F)(F)F)c(F)c2)c(NC(=O)CSCC(=O)O)s1 [Example 131, {[5-Ethyl-3-(3-fluoro-4-trifluoromethoxy-benzoyl)-thiophen-2-ylcarbamoyl]-methylsulfanyl}-acetic acid]
17 | < 100 | CCc1cc(C(=O)c2cc3cc(Cl)ccc3n2C)c(NC(=O)CSCC(=O)O)s1 [Example 151, {[3-(5-Chloro-1-methyl-1H-indole-2-carbonyl)-5-ethyl-thiophen-2-ylcarbamoyl]-methylsulfanyl}-acetic acid]

Further lines, the compound ahead of its results:

Row | Structure (SMILES) | EC50 [nM]
18 | CCc1cc(C(=O)c2ccc(Cl)c(Cl)c2)c(NC(=O)CN[C@H](C(=O)O)C(C)C)s1 [Example 170, (S)-2-({[3-(3,4-Dichloro-benzoyl)-5-ethyl-thiophen-2-ylcarbamoyl]-methyl}-amino)-3—methyl-butyric acid] | 100 to 1000
19 | CCc1cc(C(=O)c2ccc3cc(Cl)ccc3n2)c(NC(=O)CSCC(=O)O)s1 [Example 156, {[3-(6-Chloro-quinoline-2-carbonyl)-5-ethyl-thiophen-2-ylcarbamoyl]-methylsulfanyl}-acetic acid] | 100 to 1000
20 | CCc1cc(C(=O)c2ccc(OC(F)(F)F)cc2)c(NC(=O)CCN2CCC[C@@H]2C(=O)O)s1 [Example 193, (R)-1-{2-[5-Ethyl-3-(4-trifluoromethoxy-benzoyl)-thiophen-2-ylcarbamoyl]-ethyl}-pyrrolidine-2-carboxylic acid] | 100 to 1000
21 | CC(C)c1cc(C(=O)c2ccc(OC(F)(F)F)cc2)c(NC(=O)CSCC(=O)O)s1 [Example 133, {[5-Isopropyl-3-(4-trifluoromethoxy-benzoyl)-thiophen-2-ylcarbamoyl]-methylsulfanyl}-acetic acid] | < 100
22 | CCc1cc(C(=O)c2ccc(OC(F)(F)F)cc2)c(NC(=O)C(CC)SCC(=O)O)s1 (centres unmarked) [Example 109, {1-[5-Ethyl-3-(4-trifluoromethoxy-benzoyl)-thiophen-2-ylcarbamoyl]-propylsulfanyl}-acetic acid] | < 100
23 | CCC(C)c1cc(C(=O)c2ccc(OC(F)(F)F)cc2)c(NC(=O)CSCC(=O)O)s1 (centres unmarked) [Example 134, {[5-sec-Butyl-3-(4-trifluoromethoxy-benzoyl)-thiophen-2-ylcarbamoyl]-methylsulfanyl}-acetic acid] | 100 to 1000
24 | CCc1cc(C(=O)c2ccc(OC(F)(F)F)cc2)c(NC(=O)CSC(C(=O)O)c2ccccc2)s1 (centres unmarked) [Example 128, {[5-Ethyl-3-(4-trifluoromethoxy-benzoyl)-thiophen-2-ylcarbamoyl]-methylsulfanyl}-phenyl-acetic acid] | 100 to 1000
25 | CCc1cc(C(=O)c2ccc(OC(F)(F)F)cc2)c(NC(=O)CN2[C@@H](C(=O)O)CC[C@@H]2C)s1 [Example 182, (2R,5S)-1-{[5-Ethyl-3-(4-trifluoromethoxy-benzoyl)-thiophen-2-ylcarbamoyl]-methyl}-5-methyl-pyrrolidine-2-carboxylic acid] | < 100
26 | CCc1cc(C(=O)c2ccc(OC(F)(F)F)cc2)c(NC(=O)C(C)(C)SC(C)C(=O)O)s1 (centres unmarked) [Example 108, 2-{1-[5-Ethyl-3-(4-trifluoromethoxy-benzoyl)-thiophen-2-ylcarbamoyl]-1-methyl-ethylsulfanyl}-propionic acid] | < 100
